In general, melting point refers to the temperature of the solid-liquid transition.

62 compounds from a melting point compilation (Tetko et al.; mined from patent text by program, amines drawn as free bases though some values may be those of a salt) can be followed below.

In turn, `CCCCCCCCCCCCCCCCCC(=O)c1cc(C(=O)O)ccc1O` returned a melting point of 170 °C.
Next, `COc1cc([N+](=O)[O-])c2nccc(C)c2c1Cl`: 167 to 169 °C; `COc1cc2c(cc1O)C1Cc3c(Cl)cc(OC)c(O)c3CN1CC2` (configuration not stated): 136 to 138 °C; `CCOC(=O)CC(=O)c1csc(-c2ccccc2)n1`: 66 to 68 °C.
In turn, `CCCCCCCCCCCCCCCCS(=O)(=O)OC1CN(C2CCC3(C)C(CCC4C3CCC3(C)C(C(C)CCCC(C)C)CCC43)C2)C1` (configuration not stated) yielded a melting point of 64.5 to 68 °C.
Next, `COc1ccc(N(CCC(O)CO)S(=O)(=O)c2c(F)c(F)c(F)c(F)c2F)cc1` (configuration not stated): 126 to 128 °C; `COC(=O)C[C@H](O)CC(=O)C=Cc1c(-c2ccc(F)cc2)c(-c2ccc(F)cc2)c(C(=O)NCc2cccc(OC)c2)n1C(C)C`: 104 to 116 °C; `COc1ccc(C(=O)CCC(=O)N[C@@H](C)C(=O)O)cc1`: 100 to 102 °C.
The compound `CCOC(=O)COc1ccc(C(=O)Nc2ccccc2S(=O)(=O)c2ccccc2C#N)cc1` showed a melting point of 131 to 132 °C.
`CCCOc1ccccc1-c1nc2nc(NCCOC)ncc2c(=O)[nH]1` gave a melting point of 193 to 194 °C.
The same measure for `COc1ccc(N2CCCN(c3ccnc4sc(C(N)=O)c(N)c34)CC2)cc1`: 206 to 208 °C.
The same measure for `O=C(Nc1cnn2ccccc12)C1CC1`: 159 to 162 °C.
The same measure for `Cc1cc2cc(CN3CCC(CC(=O)N4CCCCC4)CC3)cnc2cc1NC(=O)c1ccc(-c2ccc(F)cc2)cc1`: 216 °C.
Compound `CCOC(=O)C=Cc1cc(OCc2ccccc2)ccc1-c1ccc(-c2cccnc2)c(C=O)c1` registered a melting point of 126 to 128 °C.
On to `C[C@]12C[C@H](c3ccc(OCCCCCl)cc3)C3=C4CCC(=O)C=C4CC[C@H]3[C@@H]1CCC2=O`, for which the melting point is 194 °C.
Regarding `Cc1c(OCC(=O)O)cc2c(c1Cl)C(=O)C1(CCCC1)C2=O`, the melting point lay within 204 to 205 °C.
In turn, `CCCCCN1OCCN(c2ccc(Cl)c(Cl)c2)C1=O` came in with a melting point of less than 40 °C.
As to `COc1cc(SC(F)F)nc(N)n1`, the melting point lay within 83 to 84 °C.
Next, `Cc1cc(-c2coc3ccc(-c4nnc(C)o4)cc23)ccn1`: 151 to 152 °C; `CC(=O)Oc1ccc2ccc(=O)oc2c1CC(Br)CBr` (configuration not stated): 123 to 124 °C.
Next, `COc1ccc2ccccc2c1CCN`: more than 180 °C.
The same measure for `Cc1ccc(-c2cc(C(F)(F)F)nn2-c2ccc(S(=O)(=O)NOC(C)C(=O)O)cc2)cc1` (single isomer, unassigned; (-)): 158 to 160 °C; for `CCOC(=O)N(O)C(C)c1cc(C(C)(C)C)c(O)c(C(C)(C)C)c1` (configuration not stated): 130 to 132 °C; for `Cn1cnc(COc2n[nH]c(C=O)c2-c2ccccc2)n1`: 202 to 205 °C.
Consider `C=C(C)C(=O)OCCCc1ccc(-c2ccc(OC(=O)C(=C)C)cc2)cc1`, for which the melting point came to 69 °C.
`CCC(=O)NC[C@@H]1C[C@H]1c1cccn2nc(C)cc12` (relative stereo) registered a melting point of 95 to 98 °C.
`CCCOc1nc(-c2ccco2)c2ncn(Cc3ccc(OC)cc3)c2n1` showed a melting point of 119 °C.
Compound `CNC(=O)c1cccc(NC(=O)CC2CCCCC2)c1` came in with a melting point of 183 °C.
The same measure for `CCCCc1ccc(-c2ccc(CCc3ccc(Cl)cc3)cc2)c(F)c1`: 49 °C.
Regarding `CCn1cc(C(=O)NC2CC2c2ccccc2)c(=O)c2cnc(N3CCCC3)nc21` (configuration not stated), the melting point was in the range of 199 to 201 °C.
The same measure for `OCc1nccc2c1CCCC2`: 81 to 82 °C; for `CCCCCN1C(=O)C(O)(c2cc3c(cc2O)OCO3)c2ccncc21` (configuration not stated): 193 to 195 °C.
The same measure for `Cc1cc2c(c(C(O)=S)c1)OCCO2`: 181 to 183 °C.
For `CCc1cc(C#N)ccc1N1C(=O)C(=O)N(C(C)(C)CC)C1=S`, the melting point was 173 °C.
Regarding `CC(=O)OC1(O)C(C(C)(C)C)=CC(C(=O)c2ccccc2O)=CC1C(C)(C)C` (configuration not stated), the melting point lay within 182 to 186 °C.
Next, `O=C(c1ccc(I)cc1)N1CCOCC1`: 116 to 117 °C; `COC=C1C(=O)NC(=O)c2ccccc21`: 260 to 261 °C.
The same measure for `NC(=O)c1cc(NCc2ccc(F)cc2)c([N+](=O)[O-])cc1[N+](=O)[O-]`: 178 to 180 °C; for `CCc1ncnc2ccc(C#Cc3cc(OC)ccc3OC)cc12`: 103 to 105 °C.
`CCCCCCCCCCCCCCCCCCOCC(COC(c1ccccc1)(c1ccccc1)c1ccccc1)OC(=O)N1CCOCC1` (configuration not stated) came in with a melting point of 78 to 79 °C.
Next, `CCOC(=O)CCc1ccccc1CNC(=O)C1Cc2ccccc2N1S(=O)(=O)c1ccc(-c2cccc(C(F)(F)F)c2)cc1` (configuration not stated): 48 °C.
Next, `COc1cc(Nc2nccc(-c3sc(-c4cccnc4)nc3C)n2)cc(OC)c1`: 229 to 230 °C.
The same measure for `O=C(OC(=O)c1ccccc1S(=O)(=O)O)c1ccccc1S(=O)(=O)O`: 126 to 129 °C; for `COC(=O)C(C)c1ccc(C(=O)c2cccs2)cc1` (configuration not stated): 62 °C; for `O=C(O)COc1cccc2c1Cc1sc(SCCC(c3ccccc3)c3ccccc3)nc1-2`: 100 to 103 °C.
Consider `Cc1ccccc1C(=O)OCC1OC(N2CN(C)C(=O)NC2=O)CC1OC(=O)c1ccccc1C` (configuration not stated), for which the melting point fell in the range of 184 to 185 °C.
The same measure for `CC(=O)OCCn1nc(-c2cc(C(C)(C)C)c(O)c(C(C)(C)C)c2)c2cccnc21`: 115 to 116 °C; for `CC1Oc2ccc(CN3CCN(c4nc(-c5ccccc5)ns4)CC3)cc2NC1=O` (configuration not stated): 192 to 221 °C; for `CCCCCCCCCCCCCCc1c[nH]c(C(=O)OC)c1`: 80 to 82 °C.
Next, `CCOC(=O)c1ncc2[nH]c3ccc(P(=O)(CC)CC)cc3c2n1`: 195 to 197 °C; `BrCc1ccc(-c2nnn(C(c3ccccc3)(c3ccccc3)c3ccccc3)n2)cc1`: 165 to 172 °C.
The same measure for `Cc1ccc(Cc2cnc(NCCSCc3csc(CN(C)C)n3)[nH]c2=O)cn1`: 154 to 155 °C; for `N#Cc1cnc2cc(I)ccc2c1Cl`: 165 to 167 °C; for `Cc1cc(C(=O)C(=O)c2ccc(OC(F)F)cc2)ccc1F`: 77 to 78 °C.
`O=C(O)CCC(=O)NCc1ccccc1`: the melting point amounted to 138 °C.
The same measure for `CC(C)(C)NS(=O)(=O)c1cccc(-c2ccc3cnc(Nc4ccc(=O)[nH]c4)nn23)c1`: 270 to 271 °C; for `COc1cc(-c2nc(C)no2)cc([N+](=O)[O-])c1OC`: 111 °C.
The same measure for `CCCc1ccc2nc(C(=O)OCC)cn2n1`: 54 to 54.5 °C.
Compound `Cc1cc(S(=O)(=O)N(C)CC(O)(CCl)c2ccccc2)ccc1Cl` (configuration not stated) gave a melting point of 105 to 107 °C.
In turn, `O=C(Nc1cccc(-c2ccnc3c(C(=O)c4cccs4)cnn23)c1)c1ccc(-n2cccc2)cc1` had a melting point of 224 to 226 °C.
Next, `Cc1ccccc1N1CCN(CCn2c(=N)sc3cc(OC(F)(F)F)ccc32)CC1`: 135 °C; `CCc1cc2c(-c3ccccc3Cl)c(N)cnc2s1`: 87 to 88 °C.
